Measured values taken from patent US20260028365A1 (BIOGEN MA INC., priority 2022, published 2026).
Read-outs that look alike come from different tables or passages of the source.

Legend:
JH2 domain of human Tyk2 = JH2 domain of human Tyk2 (Homo sapiens (Human), UniProt P29597); assay: JH2 Biochemical Assay (TR-FRET probe displacement); format: binding
Tyk2 = Tyk2 (Homo sapiens (Human), UniProt P29597); assay: pSTAT4 Cell Assay (MSD, NK92 cells); format: cell-based
[1] = TR-FRET probe displacement, JH2 domain of human Tyk2
[2] = JH2 domain of human Tyk2, TR-FRET probe displacement
[3] = TR-FRET probe displacement, JH2 domain

Chain of JH2 domain of human Tyk2 (P29597 575-876): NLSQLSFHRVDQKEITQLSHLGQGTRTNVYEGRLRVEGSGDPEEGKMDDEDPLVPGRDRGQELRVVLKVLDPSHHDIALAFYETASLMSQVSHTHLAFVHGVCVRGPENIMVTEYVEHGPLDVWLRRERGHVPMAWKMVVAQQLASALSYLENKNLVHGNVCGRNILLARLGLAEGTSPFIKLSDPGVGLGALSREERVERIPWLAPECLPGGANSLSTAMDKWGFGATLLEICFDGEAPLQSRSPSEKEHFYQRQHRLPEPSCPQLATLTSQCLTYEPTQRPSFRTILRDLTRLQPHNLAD
Chain of Tyk2 (P29597 whole entry, the tested form may be a part): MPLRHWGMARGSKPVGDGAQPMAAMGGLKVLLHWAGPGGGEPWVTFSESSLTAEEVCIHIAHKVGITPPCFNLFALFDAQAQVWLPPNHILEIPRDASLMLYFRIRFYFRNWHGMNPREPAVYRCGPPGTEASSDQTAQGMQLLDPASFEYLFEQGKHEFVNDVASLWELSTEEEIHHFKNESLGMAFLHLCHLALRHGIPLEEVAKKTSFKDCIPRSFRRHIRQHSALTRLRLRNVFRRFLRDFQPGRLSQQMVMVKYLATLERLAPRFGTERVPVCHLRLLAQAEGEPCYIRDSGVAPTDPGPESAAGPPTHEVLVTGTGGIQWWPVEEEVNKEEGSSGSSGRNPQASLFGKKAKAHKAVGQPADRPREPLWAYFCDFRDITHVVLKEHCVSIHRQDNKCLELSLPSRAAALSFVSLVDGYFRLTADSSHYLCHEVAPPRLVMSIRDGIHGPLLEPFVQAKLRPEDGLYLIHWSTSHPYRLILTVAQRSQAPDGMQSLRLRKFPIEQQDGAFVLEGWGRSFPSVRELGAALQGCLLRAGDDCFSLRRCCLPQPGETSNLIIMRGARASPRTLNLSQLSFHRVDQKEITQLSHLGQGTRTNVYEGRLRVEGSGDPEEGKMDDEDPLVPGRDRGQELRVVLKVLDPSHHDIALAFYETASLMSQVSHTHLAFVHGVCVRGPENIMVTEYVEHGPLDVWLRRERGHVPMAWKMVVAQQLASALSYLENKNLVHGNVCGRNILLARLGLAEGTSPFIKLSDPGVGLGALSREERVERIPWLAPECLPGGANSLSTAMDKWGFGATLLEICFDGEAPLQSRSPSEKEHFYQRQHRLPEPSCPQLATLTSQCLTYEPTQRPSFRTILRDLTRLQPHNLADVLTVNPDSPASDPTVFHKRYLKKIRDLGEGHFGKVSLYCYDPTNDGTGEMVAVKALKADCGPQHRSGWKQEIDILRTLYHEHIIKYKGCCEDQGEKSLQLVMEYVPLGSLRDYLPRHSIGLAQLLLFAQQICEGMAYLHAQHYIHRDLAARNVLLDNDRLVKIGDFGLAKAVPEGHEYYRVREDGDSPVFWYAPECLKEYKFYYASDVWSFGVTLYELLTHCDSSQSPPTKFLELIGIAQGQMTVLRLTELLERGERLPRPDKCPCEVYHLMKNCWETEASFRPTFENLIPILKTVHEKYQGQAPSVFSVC

Structure (SMILES)	IC50 (JH2 domain of human Tyk2; [1]) [nM]	IC50 (Tyk2; MSD) [nM]	IC50 (JH2 domain of human Tyk2; [2]) [nM]	IC50 (JH2 domain of human Tyk2; [3]) [nM]	IC50 (Tyk2) [nM]
CC(=O)Nc1cc(Nc2cc(C)nc(C(C)(F)F)n2)c(-c2cc(N(C)C)ncn2)cn1 [Example 247, N-(4-((2-(1,1-difluoroethyl)-6-methylpyrimidin-4-yl)amino)-5-(6-(dimethylamino)pyrimidin-4-yl)pyridin-2-yl)acetamide]	≤ 10	≥ 1000	–	–	–
CCc1cc(Nc2cc(NC(C)=O)ncc2OCCN2CCOCC2)nc(C(C)(F)F)n1 [Example 70, N-(4-((2-(1,1-difluoroethyl)-6-ethylpyrimidin-4-yl)amino)-5-(2-morpholinoethoxy)pyridin-2-yl)acetamide]	≤ 10	≤ 10	–	–	–
CC(=O)Nc1cc(Nc2cc(C)nc(C(C)(F)F)n2)c(OCC2CC23CC3)cn1 (stereo not shown) [Example 422, N-(4-((2-(1,1-difluoroethyl)-6-methylpyrimidin-4-yl)amino)-5-(spiro[2.2]pentan-1-ylmethoxy)pyridin-2-yl)acetamide]	–	10 to 100	≤ 10	–	–
CCc1cc(Nc2cc(NC(C)=O)ncc2-c2cnc(N(C)C)cn2)nc(C(C)(F)F)n1 [Example 856, N-(4-((2-(1,1-difluoroethyl)-6-ethylpyrimidin-4-yl)amino)-5-(5-(dimethylamino)pyrazin-2-yl)pyridin-2-yl)acetamide]	–	–	–	≤ 10	10 to 100
COCc1ccc(-c2cnc(NC(C)=O)cc2Nc2cc(COC)nc(C3CCOC3)n2)nc1 (stereo not shown) [Example 570, N-(5-(methoxymethyl)-4′-((6-(methoxymethyl)-2-(tetrahydrofuran-3-yl)pyrimidin-4-yl)amino)-[2,3′-bipyridin]-6′-yl)acetamide]	–	10 to 100	≤ 10	–	–
CC(=O)Nc1cc(Nc2ccnc(C(C)(F)F)n2)c(-c2ccc(CN3C[C@H]4C[C@@H]3CO4)cn2)cn1 [Example 886, N-(5-(((1R,4R)-2-oxa-5-azabicyclo[2.2.1]heptan-5-yl)methyl)-4′-((2-(1,1-difluoroethyl)pyrimidin-4-yl)amino)-[2,3′-bipyridin]-6′-yl)acetamide]	–	–	–	≤ 10	≤ 10
COCc1cc(-c2cnc(NC(C)=O)cc2Nc2cc(C)nc(C(C)(F)F)n2)ncn1 [Example 665, N-(4-((2-(1,1-difluoroethyl)-6-methylpyrimidin-4-yl)amino)-5-(6-(methoxymethyl)pyrimidin-4-yl)pyridin-2-yl)acetamide]	–	10 to 100	≤ 10	–	–
CC(=O)Nc1cc(Nc2cc(C)nc(C(C)(F)F)n2)c(-c2cc(CN3CCN(C)CC3)n(C)n2)cn1 [Example 804, N-(4-((2-(1,1-difluoroethyl)-6-methylpyrimidin-4-yl)amino)-5-(1-methyl-5-((4-methylpiperazin-1-yl)methyl)-1H-pyrazol-3-yl)pyridin-2-yl)acetamide]	–	–	–	≤ 10	≤ 10
COc1nc(-c2cnc(NC(C)=O)cc2Nc2cc(C)nc(C(C)(F)F)n2)ncc1C [Example 663, N-(4-((2-(1,1-difluoroethyl)-6-methylpyrimidin-4-yl)amino)-5-(4-methoxy-5-methylpyrimidin-2-yl)pyridin-2-yl)acetamide]	–	≥ 1000	10 to 100	–	–
COc1cnc(-c2cnc(NC(C)=O)cc2Nc2cc(C)nc(C(C)(F)F)n2)cn1 [Example 815, N-(4-((2-(1,1-difluoroethyl)-6-methylpyrimidin-4-yl)amino)-5-(5-methoxypyrazin-2-yl)pyridin-2-yl)acetamide]	–	–	–	≤ 10	≥ 1000
CC(=O)Nc1cc(Nc2ccnc(C(C)(F)F)n2)c(-c2cc3n(n2)CCN(CC#N)C3)cn1 [Example 736, N-(5-(5-(cyanomethyl)-4,5,6,7-tetrahydropyrazolo[1,5-a]pyrazin-2-yl)-4-((2-(1,1-difluoroethyl)pyrimidin-4-yl)amino)pyridin-2-yl)acetamide]	–	≤ 10	≤ 10	–	–
CC(=O)Nc1cc(Nc2cc(C)nc(C(C)(F)F)n2)c(OCC2(C(F)(F)F)CC2)cn1 [Example 57, N-(4-((2-(1,1-difluoroethyl)-6-methylpyrimidin-4-yl)amino)-5-((1-(trifluoromethyl)cyclopropyl)methoxy)pyridin-2-yl)acetamide]	≤ 10	10 to 100	–	–	–
CC(=O)Nc1cc(Nc2cc(C)nc(C(C)(F)F)n2)c(-c2cnc(CN(C)C)cn2)cn1 [Example 807, N-(4-((2-(1,1-difluoroethyl)-6-methylpyrimidin-4-yl)amino)-5-(5-((dimethylamino)methyl)pyrazin-2-yl)pyridin-2-yl)acetamide]	–	–	–	≤ 10	≤ 10
CCOc1cnc(NC(=O)COC)cc1Nc1cc(C)nc(C(C)(F)F)n1 [Example 26, N-(4-((2-(1,1-difluoroethyl)-6-methylpyrimidin-4-yl)amino)-5-ethoxypyridin-2-yl)-2-methoxyacetamide]	≤ 10	10 to 100	–	–	–
CC(=O)Nc1cc(Nc2cc(C)nc(C(C)(F)F)n2)c(-c2cc(C)n(C)n2)cn1 [Example 619, N-(4-((2-(1,1-difluoroethyl)-6-methylpyrimidin-4-yl)amino)-5-(1,5-dimethyl-1H-pyrazol-3-yl)pyridin-2-yl)acetamide]	–	≤ 10	≤ 10	–	–
CC(=O)Nc1cc(Nc2cc(C)nc(C(C)(F)F)n2)c(OC[C@]23C[C@](C)(CO2)C3)cn1 [Example 514, N-(4-((2-(1,1-difluoroethyl)-6-methylpyrimidin-4-yl)amino)-5-(((1s,4s)-4-methyl-2-oxabicyclo[2.1.1]hexan-1-yl)methoxy)pyridin-2-yl)acetamide]	–	≤ 10	≤ 10	–	–
COCCN(C)c1nnc(-c2cnc(NC(C)=O)cc2Nc2ccnc(C(C)(F)F)n2)s1 [Example 773, N-(4-((2-(1,1-difluoroethyl)pyrimidin-4-yl)amino)-5-(5-((2-methoxyethyl)(methyl)amino)-1,3,4-thiadiazol-2-yl)pyridin-2-yl)acetamide]	–	–	–	≤ 10	≤ 10
CC(=O)Nc1cc(Nc2ccnc(C(C)(F)F)n2)c(-c2ccnc(C)n2)cn1 [Example 173, N-(4-((2-(1,1-difluoroethyl)pyrimidin-4-yl)amino)-5-(2-methylpyrimidin-4-yl)pyridin-2-yl)acetamide]	≤ 10	≤ 10	–	–	–
COc1cnc(-c2cnc(NC(C)=O)cc2Nc2ccnc(C(C)(F)F)n2)cn1 [Example 828, N-(4-((2-(1,1-difluoroethyl)pyrimidin-4-yl)amino)-5-(5-methoxypyrazin-2-yl)pyridin-2-yl)acetamide]	–	–	–	≤ 10	10 to 100
CC(=O)Nc1cc(Nc2cccc(OC(F)F)n2)c(-c2ccncn2)cn1 [Example 171, N-(4-((6-(difluoromethoxy)pyridin-2-yl)amino)-5-(pyrimidin-4-yl)pyridin-2-yl)acetamide]	≤ 10	100 to 1000	–	–	–
CC(=O)Nc1cc(Nc2ccnc(C(C)(F)F)n2)c(-c2ccc(OC(F)F)nn2)cn1 [Example 858, N-(4-((2-(1,1-difluoroethyl)pyrimidin-4-yl)amino)-5-(6-(difluoromethoxy)pyridazin-3-yl)pyridin-2-yl)acetamide]	–	–	–	≤ 10	10 to 100
COc1cc(-c2cnc(NC(C)=O)cc2Nc2ccnc(C(C)(F)F)n2)nc(C)n1 [Example 163, N-(4-((2-(1,1-difluoroethyl)pyrimidin-4-yl)amino)-5-(6-methoxy-2-methylpyrimidin-4-yl)pyridin-2-yl)acetamide]	≤ 10	10 to 100	–	–	–
CCOc1cnc(NC(C)=O)cc1Nc1cc(-c2cnn(CC(F)(F)F)c2)nc(C(C)(F)F)n1 [Example 309, N-(4-((2-(1,1-difluoroethyl)-6-(1-(2,2,2-trifluoroethyl)-1H-pyrazol-4-yl)pyrimidin-4-yl)amino)-5-ethoxypyridin-2-yl)acetamide]	≤ 10	10 to 100	–	–	–
CC(=O)Nc1cc(Nc2cc(C)nc(C(C)(F)F)n2)c(-c2ccc([C@H]3CN(C)CCO3)cn2)cn1 (single isomer, unassigned) [Example 644, (S)-N-(4′-((2-(1,1-difluoroethyl)-6-methylpyrimidin-4-yl)amino)-5-(4-methylmorpholin-2-yl)-[2,3′-bipyridin]-6′-yl)acetamide or (R)-N-(4′-((2-(1,1-difluoroethyl)-6-methylpyrimidin-4-yl)amino)-5-(4-methylmorpholin-2-yl)-[2,3′-bipyridin]-6′-yl)acetamide]	–	≤ 10	≤ 10	–	–
CC(=O)Nc1cc(Nc2cc(C)nc(C(C)(F)F)n2)c(-c2ccc(F)c(C#N)n2)cn1 [Example 633, N-(6-cyanO4′-((2-(1,1-difluoroethyl)-6-methylpyrimidin-4-yl)amino)-5-fluorO[2,3′-bipyridin]-6′-yl)acetamide]	–	≤ 10	≤ 10	–	–
CC(=O)Nc1cc(Nc2cc(C)nc(C(C)(F)F)n2)c(OCc2ncc(C)o2)cn1 [Example 341, N-(4-((2-(1,1-difluoroethyl)-6-methylpyrimidin-4-yl)amino)-5-((5-methyloxazol-2-yl)methoxy)pyridin-2-yl)acetamide]	≤ 10	10 to 100	–	–	–
CC(=O)Nc1cc(Nc2cc(C)nc(C(C)(F)F)n2)c(-c2cccc(C(C)O)n2)cn1 (racemic) [Example 638, rac-(R)-N-(4′-((2-(1,1-difluoroethyl)-6-methylpyrimidin-4-yl)amino)-6-(1-hydroxyethyl)-[2,3′-bipyridin]-6′-yl)acetamide]	–	≤ 10	≤ 10	–	–
CC(=O)Nc1cc(Nc2cc(C)nc(C(C)(F)F)n2)c(OCC2CC(F)(F)C2)cn1 [Example 465, N-(5-((3,3-difluorocyclobutyl)methoxy)-4-((2-(1,1-difluoroethyl)-6-methylpyrimidin-4-yl)amino)pyridin-2-yl)acetamide]	–	10 to 100	≤ 10	–	–
COc1ncc(-c2cnc(NC(C)=O)cc2Nc2ccnc(C(C)(F)F)n2)nc1OC [Example 686, N-(4-((2-(1,1-difluoroethyl)pyrimidin-4-yl)amino)-5-(5,6-dimethoxypyrazin-2-yl)pyridin-2-yl)acetamide]	–	≥ 1000	10 to 100	–	–
